Where no end group is shown, it is not given here. [ ]: non-standard residue; d: D form. Orn = NCCC[C@H](N)C(=O)O; Dab = NCC[C@H](N)C(=O)O; Dap = NC[C@H](N)C(=O)O

A short description of data set [1]: Circular dichroism (CD), percentage of alpha-helix. Type of data set: physicochemical. As to conditions: CD at 20° C., condition not given; for Alpha-helical rate (%), second value of pair: value after the slash; for Alpha-helical rate (%), first value of pair: value before the slash. The procedure:
To investigate alpha-helix of the amphiphilic peptide (1a-1h), circular dichroism (CD) was performed. Particularly, CD was measured at 20° C. by using JASCO model J715 spectropolarimeter. Scanning was performed at 190-250 nm three times (bandwidth: 1 nm, datapitch: 0.5 nm, speed: 100 nm/min), which were averaged to obtain CD data. Spectrum was corrected by measuring background spectrum. CD signal was recorded after modulating thereof with mean residue ellipticity [Q]. Percentage (%) of alpha-helix(fn) was calculated by the following formula. [Q]=Qobs[MRW/(10lc)]
MRW=mean residue weight (dividing molecular weight by the number of peptide bond, l=pathway length (cm), c=concentration (mg/mL). fn=([Q]222−[Q]coil)/([Q]helix−[Q]coil) [Q]helix=−40,000[…]+100t [Q]coil=640−45t
[Q]222=mean residue ellipticity at 222 nm (deg cm2 mol-1), [Q]helix=ellipticity of peptide having complete helical structure, [Q]coil=ellipticity of peptide having complete random coil structure, n=number of amino acid, t=° C.

Data set [2] has as its system IRES domain IV hairpin. Kind of data set: Fluorescence anisotropy competition with Rev-N-rhodamine probe, binding to IRES hairpin. On the set-up: species or system HCV. Conditions: for differentiation coefficient (IRES): (mean Kd to other hairpin RNA)/(Kd to one hairpin RNA); for Kd: fluorescence anisotropy, 20° C., pH 7.4, read-out: Dissociation constant, IRES; for binding strength to IRES, in words: compared with the original peptide. On the procedure:
(§1) Binding force to each target hairpin RNA (IRES, RRE, TAR and 16S A-site) was measured by fluorescence polarization using alanine scanned peptide library (1b-1h).
(§2) Particularly, […] of each target RNA was prepared at the concentration of 10 mM, which stood at 65° C. for 10 minutes and then cooled down slowly at room temperature, leading to folding. The amphiphilic peptide was prepared respectively at the concentration of […], which were maintained at 0° C. As a probe, rev peptide labeled with rhodamine (Rev-N-rhodamine) emitting […] fluorescence was prepared at the concentration of 10 mM. Buffer was composed of 140 mM NaCl, 5 mM KCl, 1 mM MgCl2, and 20 mM HEPES (N-2-Hydroxyethylpiperazine-N′-2-Ethanesulfonic Acid, pH 7.4). Fluorescence Anisotropy was measured using AMINCO-Bowman Series Luminescence Spectrometer at 20° C. Ten nM of the probe was added in […] of buffer, to which target RNA was added to induce interaction between the probe and the target RNA. At that time, anisotropy value increased. Then, the synthesized peptide competing with the probe for binding site was added thereto with increasing the concentration slowly. Changes of fluorescence polarization were measured until fluorescence polarization reached as low as the beginning. Considering the concentration and amount of the peptide added, binding force to target RNA was calculated. That is, the binding strength between target RNA and peptide was determined according to the following KaleidaGraph. [Peptide]=Kd(Amax−A)/[Kd(A−A0)+1]×[RNA]−Kd(A−A0)^2[Probe]0/(Amax−A)(Amax−A0)
(§3) Herein, [Peptide] indicates the concentration of peptide, [RNA] indicates the concentration of target RNA, and [Probe]0 indicates the concentration of probe. A is the value of fluorescence anisotropy of sample, Amax is the value of totally bound tracer, and A0 is the value of totally free tracer.

Data set [3] has as its target 16S ribosomal RNA A-site. Kind of data set: Fluorescence anisotropy competition with Rev-N-rhodamine probe, binding to 16S A-site. Conditions: 20° C., pH 7.4, read-out: Dissociation constant, 16S A-site. The procedure:
as §1, §2, §3

Data set [4] concerns the target TAR hairpin RNA. Kind of data set: Fluorescence anisotropy competition with Rev-N-rhodamine probe, binding to TAR hairpin RNA. On the set-up: species or system HIV. Conditions: fluorescence anisotropy, 20° C., pH 7.4; read-out: Dissociation constant, TAR. The procedure: as §1, §2, §3
For data set [5], the target named is RRE hairpin RNA. The data set is described as follows: Fluorescence anisotropy competition with Rev-N-rhodamine probe, binding to RRE hairpin RNA. Details: species or system HIV. As to conditions: 20° C., pH 7.4, read-out: Dissociation constant, RRE. On the procedure: as §1, §2, §3

On to “LKKLLKLLDabKLLKLAG (LKKLLKLL[Dab]KLLKLAG-NH2; N-terminus assumed; SMILES CC(C)C[C@H](NC(=O)[C@H](CCCCN)NC(=O)[C@H](CC(C)C)NC(=O)[C@H](CC(C)C)NC(=O)[C@H](CCCCN)NC(=O)[C@H](CCN)NC(=O)[C@H](CC(C)C)NC(=O)[C@H](CC(C)C)NC(=O)[C@H](CCCCN)NC(=O)[C@H](CC(C)C)NC(=O)[C@H](CC(C)C)NC(=O)[C@H](CCCCN)NC(=O)[C@H](CCCCN)NC(=O)[C@@H](N)CC(C)C)C(=O)N[C@@H](C)C(=O)NCC(N)=O) [2e, second generation peptide, hydrophilic face modified]”, for which the “Alpha-helical rate (%), second value of pair” value in data set [1] stood at 57%. Further, the “Alpha-helical rate (%), first value of pair” value in data set [1] was 43%. Also, the “differentiation coefficient (IRES)” value in data set [2] was 6.5. Besides, the Kd in data set [2] was found to be 3.5 nM; in data set [3], 17 nM; in data set [4], 28 nM; in data set [5], 23 nM.
On to “LKKLLKLLOrnKLLKWAG (LKKLLKLL[Orn]KLLKWAG-NH2; N-terminus assumed; SMILES CC(C)C[C@H](NC(=O)[C@H](CC(C)C)NC(=O)[C@H](CCCCN)NC(=O)[C@H](CCCN)NC(=O)[C@H](CC(C)C)NC(=O)[C@H](CC(C)C)NC(=O)[C@H](CCCCN)NC(=O)[C@H](CC(C)C)NC(=O)[C@H](CC(C)C)NC(=O)[C@H](CCCCN)NC(=O)[C@H](CCCCN)NC(=O)[C@@H](N)CC(C)C)C(=O)N[C@@H](CCCCN)C(=O)N[C@@H](Cc1c[nH]c2ccccc12)C(=O)N[C@@H](C)C(=O)NCC(N)=O) [3f, third generation peptide, both faces modified]”, for which the “Alpha-helical rate (%), second value of pair” value in data set [1] was determined as 58%. In addition, in data set [1], the “Alpha-helical rate (%), first value of pair” value stood at 36%. For the same substance, in data set [2], the “differentiation coefficient (IRES)” value was determined as 1.0. Moreover, the Kd in data set [2] was found to be 6.1 nM; in data set [3], 10 nM; in data set [4], 4.7 nM; in data set [5], 3.6 nM.
Consider “LKKLLKLLKKLLDapWAG (LKKLLKLLKKLL[Dap]WAG-NH2; N-terminus assumed; SMILES CC(C)C[C@H](NC(=O)[C@H](CC(C)C)NC(=O)[C@H](CCCCN)NC(=O)[C@H](CCCCN)NC(=O)[C@H](CC(C)C)NC(=O)[C@H](CC(C)C)NC(=O)[C@H](CCCCN)NC(=O)[C@H](CC(C)C)NC(=O)[C@H](CC(C)C)NC(=O)[C@H](CCCCN)NC(=O)[C@H](CCCCN)NC(=O)[C@@H](N)CC(C)C)C(=O)N[C@@H](CN)C(=O)N[C@@H](Cc1c[nH]c2ccccc12)C(=O)N[C@@H](C)C(=O)NCC(N)=O) [3g, third generation peptide, both faces modified]”, for which the “Alpha-helical rate (%), second value of pair” value in data set [1] was 63%. For the same substance, the “Alpha-helical rate (%), first value of pair” value in data set [1] was determined as 41%. The “differentiation coefficient (IRES)” value in data set [2] is reported as 9.4. Moreover, the Kd in data set [2] was 1.2 nM; in data set [3] it was 17 nM; in data set [4], 5.9 nM; in data set [5], 11 nM.
“WKKLLKLLKKLLKLAG [2n, tryptophan scanned second generation peptide]”: in data set [1], the “Alpha-helical rate (%), second value of pair” value is reported as 65% and the “Alpha-helical rate (%), first value of pair” value is reported as 48%. For the same substance, in data set [2], the “differentiation coefficient (IRES)” value is recorded as 2.4; the “binding strength to IRES, in words” value was “significantly increased”; the Kd was found to be 0.74 nM. In data set [3], the Kd was found to be 0.76 nM. Further, the Kd in data set [4] worked out at 2 nM. In data set [5], the Kd was determined as 2.5 nM.
For the substance “LAKLLKLLKKLLKLKG [1b, alanine scanned first generation peptide]”, the “Alpha-helical rate (%), second value of pair” value in data set [1] was found to be 44%. In addition, the “Alpha-helical rate (%), first value of pair” value in data set [1] is given as 9%. The “differentiation coefficient (IRES)” value in data set [2] is 2.0. For the same substance, the Kd is 53 nM in data set [2], 160 nM in data set [3], 16 nM in data set [4] and 140 nM in data set [5].
With “LKKLLKLLKKLLKLAG [1h, alanine scanned first generation peptide]”, in data set [1], the “Alpha-helical rate (%), second value of pair” value came out at 43%. Besides, the “Alpha-helical rate (%), first value of pair” value in data set [1] is on record as 9%. In data set [2], the “differentiation coefficient (IRES)” value is given as 0.96. Also, the Kd came out at 49 nM in data set [2], 53 nM in data set [3], 63 nM in data set [4] and 25 nM in data set [5].
Consider “LKKLLDabLLKKLLKWAG (LKKLL[Dab]LLKKLLKWAG-NH2; N-terminus assumed; SMILES CC(C)C[C@H](NC(=O)[C@H](CC(C)C)NC(=O)[C@H](CCCCN)NC(=O)[C@H](CCCCN)NC(=O)[C@H](CC(C)C)NC(=O)[C@H](CC(C)C)NC(=O)[C@H](CCN)NC(=O)[C@H](CC(C)C)NC(=O)[C@H](CC(C)C)NC(=O)[C@H](CCCCN)NC(=O)[C@H](CCCCN)NC(=O)[C@@H](N)CC(C)C)C(=O)N[C@@H](CCCCN)C(=O)N[C@@H](Cc1c[nH]c2ccccc12)C(=O)N[C@@H](C)C(=O)NCC(N)=O) [3e, third generation peptide, both faces modified]”, for which, in data set [1], the “Alpha-helical rate (%), second value of pair” value came out at 45%. In addition, the “Alpha-helical rate (%), first value of pair” value in data set [1] stood at 39%. For the same substance, the “differentiation coefficient (IRES)” value in data set [2] is on record as 28. For the same substance, the Kd in data set [2] was 0.62 nM; in data set [3], 16 nM; in data set [4], 14 nM; in data set [5], 22 nM.
For the substance “LKKLLDabLLOrnKLLDapLAG (LKKLL[Dab]LL[Orn]KLL[Dap]LAG-NH2; N-terminus assumed; SMILES CC(C)C[C@H](NC(=O)[C@H](CN)NC(=O)[C@H](CC(C)C)NC(=O)[C@H](CC(C)C)NC(=O)[C@H](CCCCN)NC(=O)[C@H](CCCN)NC(=O)[C@H](CC(C)C)NC(=O)[C@H](CC(C)C)NC(=O)[C@H](CCN)NC(=O)[C@H](CC(C)C)NC(=O)[C@H](CC(C)C)NC(=O)[C@H](CCCCN)NC(=O)[C@H](CCCCN)NC(=O)[C@@H](N)CC(C)C)C(=O)N[C@@H](C)C(=O)NCC(N)=O) [2m, second generation peptide, hydrophilic face modified]”, the “Alpha-helical rate (%), second value of pair” value in data set [1] was determined as 69%. Also, the “Alpha-helical rate (%), first value of pair” value in data set [1] is on record as 49%. Moreover, the “differentiation coefficient (IRES)” value in data set [2] was 4.9. Moreover, the Kd came to 4.3 nM in data set [2], 13 nM in data set [3], 31 nM in data set [4] and 19 nM in data set [5].
With “LKKLLKLLAKLLKLKG [1e, alanine scanned first generation peptide]”, in data set [1], the “Alpha-helical rate (%), second value of pair” value is given as 43% and the “Alpha-helical rate (%), first value of pair” value is given as 12%. In addition, in data set [2], the “differentiation coefficient (IRES)” value stood at 1.1; the “binding strength to IRES, in words” value is “reduced binding strength”; the Kd came out at 120 nM. Moreover, the Kd in data set [3] was 180 nM. Further, the Kd in data set [4] came out at 74 nM. The Kd in data set [5] was 130 nM.

(Values after patent US8084399B2, “Process for screening of a binding amphiphilic peptides specific for hairpin RNA” (priority 2009, dated 2011).)
